{"source": "patent US4201781A", "about": "“Substituted 7[s-oxopyrido[2,3-d]pyrimidine carboxamido acetamido]cephalosporins” (Dainippon Pharmaceutical Co., Ltd., priority 1977, dated 1980)", "key": {"[1]": {"tested_on": "Staphylococcus aureus No. 50774", "experiment": "In vivo efficacy against systemic infection in mice", "design": "species or system male mice (ddY)", "conditions": "NO.50774, sc, 336 h, read-out: ED50 (median effective dose)", "experimental": "(§1) Compounds 1,2, A and B were each dissolved in deionized water to prepare injectable solutions having various concentrations.\n(§2) Each of the injectable solutions was administered to mice infected with each of the bacteria described below under the conditions described below, and the median effective doses (ED50) obtained are shown in Table II. […]\n(§3) male mice (ddY) weighing about 20 g\n(1) Staphylococcus aureus No. 50774; Intravenous infection with 50 to 100 LD50 (about 5×10^8 cells/mouse) of a bacterial suspension in saline. twice, about 5 minutes and 6 hours after infection. […]\n(§4) Note; The numerals in the table show ED50 (mg/kg). ED50 values\n(§5) were calculated in accordance with the BehrensKaerber method (Arch. Exp."}, "[2]": {"tested_on": "Pseudomonas aeruginosa No. 12", "experiment": "In vivo efficacy against systemic infection in mice", "design": "species or system male mice (ddY)", "conditions": "168 h, read-out: ED50 (median effective dose)", "experimental": "as §1, §2, §3\n(3) Pseudomonas aeruginosa No. 12; Intraperitoneal infection with 50 to 100 LD50 (about 5×10^3 cells/mouse) of a bacterial suspension in trypto-soy broth with 4% mucin. twice, about 5 minutes and 6 hours after infection. […]\nas §4, §5"}, "Escherichia coli P-5101 [3]": {"tested_on": "Escherichia coli P-5101", "experiment": "In vivo efficacy against systemic infection in mice", "design": "species or system male mice (ddY)", "conditions": "P5101, sc, 168 h, read-out: ED50 (median effective dose)", "experimental": "as §1\nEach of the injectable solutions was administered to mice infected with each of the bacteria described below under the conditions described below, and the median effective doses (ED50) obtained are shown in Table II.\nas §3\n(2) Escherichia coli P-5101; Intraperitoneal infection with 50 to 100 LD50 (about 9×10^6 cells/mouse) of a bacterial suspension in trypto-soy broth with 4% mucin.\ntwice, about 5 minutes and 6 hours after infection.\nas §4, §5"}, "[4]": {"tested_on": "Klebsiella pneumoniae No. 13", "experiment": "In vitro antibacterial activity (MIC)", "assay_type": "cell-based", "conditions": "Klebsiella pneumoniae, NO.13, read-out: minimum inhibitory concentration (MIC)", "description": "(§6) The numerals in the table show minimum inhibitory concentrations (MIC)"}, "[5]": {"tested_on": "Staphylococcus aureus 209P JC-1", "experiment": "In vitro antibacterial activity (MIC)", "assay_type": "cell-based", "conditions": "Staphylococcus aureus, 209P, read-out: minimum inhibitory concentration (MIC)", "description": "as §6"}, "Proteus morganii Kono": {"tested_on": "Proteus morganii Kono", "experiment": "In vitro antibacterial activity (MIC)", "assay_type": "cell-based", "conditions": "Morganella morganii, read-out: minimum inhibitory concentration (MIC)", "description": "as §6"}, "[6]": {"tested_on": "Corynebacterium pyrogenes C-21", "experiment": "In vitro antibacterial activity (MIC)", "assay_type": "cell-based", "conditions": "Corynebacterium, C21, read-out: minimum inhibitory concentration (MIC)", "description": "as §6"}, "[7]": {"tested_on": "Staphylococcus aureus No. 50774", "experiment": "In vitro antibacterial activity (MIC)", "assay_type": "cell-based", "conditions": "Staphylococcus aureus, NO.50774, read-out: minimum inhibitory concentration (MIC)", "description": "as §6"}, "[8]": {"tested_on": "Escherichia coli NIHJ JC-2", "experiment": "In vitro antibacterial activity (MIC)", "assay_type": "cell-based", "conditions": "Escherichia coli, NIHJJC2, read-out: minimum inhibitory concentration (MIC)", "description": "as §6"}, "[9]": {"tested_on": "Pseudomonas aeruginosa No. 12", "experiment": "In vitro antibacterial activity (MIC)", "assay_type": "cell-based", "conditions": "Pseudomonas aeruginosa, NO.12, read-out: minimum inhibitory concentration (MIC)", "description": "as §6"}, "[10]": {"tested_on": "Salmonella typhimurium S-9", "experiment": "In vitro antibacterial activity (MIC)", "assay_type": "cell-based", "conditions": "Salmonella enterica, TYPHIMURIUM, read-out: minimum inhibitory concentration (MIC)", "description": "as §6"}, "[11]": {"tested_on": "Streptococcus pyrogenes 65A", "experiment": "In vitro antibacterial activity (MIC)", "assay_type": "cell-based", "conditions": "Streptococcus, 65A, read-out: minimum inhibitory concentration (MIC)", "description": "as §6"}, "[12]": {"tested_on": "Pseudomonas aeruginosa Tsuchijima", "experiment": "In vitro antibacterial activity (MIC)", "assay_type": "cell-based", "conditions": "Pseudomonas aeruginosa, read-out: minimum inhibitory concentration (MIC)", "description": "as §6"}, "[13]": {"tested_on": "Enterobacter cloacae P-2540", "experiment": "In vitro antibacterial activity (MIC)", "assay_type": "cell-based", "conditions": "Enterobacter cloacae, P2540, read-out: minimum inhibitory concentration (MIC)", "description": "as §6"}, "[14]": {"tested_on": "Salmonella enteritidis No. 1891", "experiment": "In vitro antibacterial activity (MIC)", "assay_type": "cell-based", "conditions": "Salmonella enterica, ENTERITIDIS, read-out: minimum inhibitory concentration (MIC)", "description": "as §6"}, "Escherichia coli P-5101 [15]": {"tested_on": "Escherichia coli P-5101", "experiment": "In vitro antibacterial activity (MIC)", "assay_type": "cell-based", "conditions": "Escherichia coli, P5101, read-out: minimum inhibitory concentration (MIC)", "description": "as §6"}, "[16]": {"tested_on": "Serratia marcescens IFO 3736", "experiment": "In vitro antibacterial activity (MIC)", "assay_type": "cell-based", "conditions": "Serratia marcescens, IFO3736, read-out: minimum inhibitory concentration (MIC)", "description": "as §6"}, "Proteus mirabilis P-2381": {"tested_on": "Proteus mirabilis P-2381", "experiment": "In vitro antibacterial activity (MIC)", "assay_type": "cell-based", "conditions": "Proteus mirabilis, P2381, read-out: minimum inhibitory concentration (MIC)", "description": "as §6"}, "Acute toxicity in mice": {"experiment": "Acute toxicity in mice", "conditions": "mouse, in vivo, ip; read-out: LD50 (median lethal dose)", "experimental": "Injectable solutions containing compounds 1, 2 and compound A in various concentrations were administered to male mice (ddY) (4 to 8 in each group) in a dose of 0.1 ml per 10 g of body weight. The number of dead mice was counted after a lapse of 7 days, and the value of median lethal dose (LD50, mg/kg) was calculated.\nNote: The LD50 values were calculated in accordance with the […]"}, "[17]": {"tested_on": "Gram-negative and Gram-positive bacteria", "experiment": "Antibacterial activity (general statement)"}, "Escherichia coli P-140a": {"tested_on": "Escherichia coli P-140a", "experiment": "In vitro antibacterial activity (MIC)", "assay_type": "cell-based", "conditions": "Escherichia coli, read-out: minimum inhibitory concentration (MIC)", "description": "as §6\n(§7) *Clinically isolated Cephalexinresistant strain."}, "Shigella flexneri 2a": {"tested_on": "Shigella flexneri 2a", "experiment": "In vitro antibacterial activity (MIC)", "assay_type": "cell-based", "conditions": "Shigella flexneri, 2A, read-out: minimum inhibitory concentration (MIC)", "description": "as §6, §7"}, "[18]": {"tested_on": "Shigella flexneri 4a P-330", "experiment": "In vitro antibacterial activity (MIC)", "assay_type": "cell-based", "conditions": "Shigella flexneri, 4AP330, read-out: minimum inhibitory concentration (MIC)", "description": "as §6, §7"}, "Solubility in water": {"experiment": "Solubility in water", "assay_type": "physicochemical", "conditions": "for Solubility in water (in words): water / deionized water / aqueous medium", "experimental": "|Solubility in deionized water at 25° C."}}, "note": "Read-outs that look alike come from different tables or passages of the source."}
{"smiles": "Cn1nnnc1SCC1=C(C(=O)[O-])N2C(=O)C(NC(=O)[C@H](NC(=O)c3c[nH]c4nc(N5CCNCC5)ncc4c3=O)c3ccc(O)cc3)[C@H]2SC1.[Na+]", "note": "(stereo partly drawn)", "values": [{"measurement": "ED50", "setting": "[1]", "result": "~7.8", "unit": "mg/kg"}, {"measurement": "ED50", "setting": "[2]; NO.12, po", "result": "> 100", "unit": "mg/kg"}, {"measurement": "ED50", "setting": "[2]; NO.12, sc", "result": 4.8, "unit": "mg/kg"}, {"measurement": "ED50", "setting": "Escherichia coli P-5101 [3]", "result": "~0.4", "unit": "mg/kg"}, {"measurement": "MIC", "setting": "[4]", "result": 0.78, "unit": "µg/mL"}, {"measurement": "MIC", "setting": "[5]", "result": 3.13, "unit": "µg/mL"}, {"measurement": "MIC", "setting": "Proteus morganii Kono", "result": 25, "unit": "µg/mL"}, {"measurement": "MIC", "setting": "[6]", "result": 6.25, "unit": "µg/mL"}, {"measurement": "MIC", "setting": "[7]", "result": 6.25, "unit": "µg/mL"}, {"measurement": "MIC", "setting": "[8]", "result": 1.56, "unit": "µg/mL"}, {"measurement": "MIC", "setting": "[9]", "result": 6.25, "unit": "µg/mL"}, {"measurement": "MIC", "setting": "[10]", "result": 0.78, "unit": "µg/mL"}, {"measurement": "MIC", "setting": "[11]", "result": 0.2, "unit": "µg/mL"}, {"measurement": "MIC", "setting": "[12]", "result": 3.13, "unit": "µg/mL"}, {"measurement": "MIC", "setting": "[13]", "result": 3.13, "unit": "µg/mL"}, {"measurement": "MIC", "setting": "[14]", "result": 0.78, "unit": "µg/mL"}, {"measurement": "MIC", "setting": "Escherichia coli P-5101 [15]", "result": 0.78, "unit": "µg/mL"}, {"measurement": "MIC", "setting": "[16]", "result": 6.25, "unit": "µg/mL"}, {"measurement": "MIC", "setting": "Proteus mirabilis P-2381", "result": 12.5, "unit": "µg/mL"}, {"measurement": "LD50 at 168 h", "setting": "Acute toxicity in mice", "result": "~1500", "unit": "mg/kg"}, {"measurement": "antibacterial activity (in words)", "setting": "[17]", "result": "superior antibacterial activity as the compound of the present invention"}, {"measurement": "MIC", "setting": "Escherichia coli P-140a", "result": 1.56, "unit": "µg/mL"}, {"measurement": "MIC", "setting": "Shigella flexneri 2a", "result": 0.78, "unit": "µg/mL"}, {"measurement": "MIC", "setting": "[18]", "result": 12.5, "unit": "µg/mL"}, {"measurement": "solubility", "setting": "Solubility in water; deionized water at 25° C.", "result": "~500", "unit": "µg/mL"}, {"measurement": "Solubility in water (in words)", "setting": "Solubility in water", "result": "extremely low solubility in water"}]}
{"smiles": "Cn1nnnc1SCC1=C(C(=O)O)N2C(=O)C(NC(=O)C(NC(=O)c3c[nH]c4nc(N5CCNCC5)ncc4c3=O)c3ccc(O)cc3)C2SC1", "note": "(stereo not drawn)", "values": [{"measurement": "Solubility in water (in words)", "setting": "Solubility in water", "result": "soluble in deionized water in the same degree as compound A"}]}
